Assays:
BTK = molecular target: T1, BTK (Homo sapiens, UniProt Q06187); experiment: BTK degradation in TMD-8 cells (HTRF assay); type: cell-based; conditions: 6 h treatment, HTRF BTK degradation IC50 (DC50)
T1 construct: endogenous in cells; host or cells: TMD-8 cells
Summary of the method: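 TMD-8 cells exposed to 8 concentrations (6-fold serial dilution from 1 mM 500× DMSO stocks; 0.2% DMSO final) for 6 h. Lysates incubated overnight at room temperature with HTRF antibodies, read at 665/620 nm. DC50 from four-parameter logistic fit of percent inhibition.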

HEK-293 cells = experiment: HEK-293 cytotoxicity detection (CellTiter-Glo); type: cell-based; conditions: Homo sapiens, 72 h incubation, read-out: HEK293
Summary of the method: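 HEK-293 cells exposed 72 h to 8 compound concentrations (4-fold dilution series, 0.2% DMSO). Viability read as CellTiter-Glo luminescence; IC50 from four-parameter logistic fit of percent inhibition.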

T1 sequence (Q06187 whole entry): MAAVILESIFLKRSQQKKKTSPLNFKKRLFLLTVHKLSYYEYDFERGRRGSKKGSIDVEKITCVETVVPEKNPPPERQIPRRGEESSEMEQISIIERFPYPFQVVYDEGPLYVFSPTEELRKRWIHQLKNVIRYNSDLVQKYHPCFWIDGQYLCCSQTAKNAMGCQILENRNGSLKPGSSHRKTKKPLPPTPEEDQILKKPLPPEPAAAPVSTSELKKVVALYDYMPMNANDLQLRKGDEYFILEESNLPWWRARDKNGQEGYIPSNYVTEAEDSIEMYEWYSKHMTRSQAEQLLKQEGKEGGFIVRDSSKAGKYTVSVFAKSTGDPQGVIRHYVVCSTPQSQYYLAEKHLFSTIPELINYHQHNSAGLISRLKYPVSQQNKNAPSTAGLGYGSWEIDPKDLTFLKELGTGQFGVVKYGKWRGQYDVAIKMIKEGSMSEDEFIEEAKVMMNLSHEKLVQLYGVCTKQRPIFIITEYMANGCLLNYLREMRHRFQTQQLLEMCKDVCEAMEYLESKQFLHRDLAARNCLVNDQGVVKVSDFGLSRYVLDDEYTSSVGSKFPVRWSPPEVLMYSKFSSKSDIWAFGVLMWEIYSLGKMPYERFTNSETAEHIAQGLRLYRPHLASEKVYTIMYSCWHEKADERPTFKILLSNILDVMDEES

Row | DC50 (BTK) [nM] | Compound | IC50 (HEK-293 cells) [nM]
1 | 17.9 | Cc1cc(-c2cc(Nc3ncc(N4CCN(CC5CCN(c6ccc(N7CCC(=O)NC7=O)cc6)CC5)CC4)s3)ncn2)c(F)cc1[C@@H](C)NC(=O)c1nc(C(C)(C)C)no1 [Example 71, (R)-3-(tert-butyl)-N-(1-(4-(6-((5-(4-((1-(4-(2,4-dioxotetrahydropyrimidin-1(2H)-yl)phenyl)piperidin-4-yl)methyl)piperazin-1-yl)thiazol-2-yl)amino)pyrimidin-4-yl)-5-fluoro-2-methylphenyl)ethyl)-1,2,4-oxadiazole-5-carboxamide] | > 10000
2 | 11.2 | Cc1cc(-c2cc(Nc3nnc(N4CCN(CC5CCN(c6ccc(N7CCC(=O)NC7=O)cc6)CC5)CC4)s3)ncn2)ccc1[C@@H](C)NC(=O)c1nc(C(C)(C)C)no1 [Example 72, (R)-3-(tert-butyl)-N-(1-(4-(6-((5-(4-((1-(4-(2,4-dioxotetrahydropyrimidin-1(2H)-yl)phenyl)piperidin-4-yl)methyl)piperazin-1-yl)-1,3,4-thiadiazol-2-yl)amino)pyrimidin-4-yl)-2-methylphenyl)ethyl)-1,2,4-oxadiazole-5-carboxamide] | 1910
